# According to patent publication US6482951B2 (Hoffmann-La Roche Inc., priority 2000, dated 2002):
# System: C57BL/6J mice
# Assay: Glucokinase activator in vivo screen (blood glucose after oral dosing)
# Conditions: oral gavage 50 mg/kg, blood glucose at 0, 1, 2, 4, 6 h, active = significant (p ≦0.05) decrease for two consecutive time points
# Method: Glucokinase Activator in vivo Screen Protocol: C57BL/6J mice are orally dosed via gavage with Glucokinase (GK) activator at 50 mg/kg body weight following a two hour fasting period. Blood glucose determinations are made five times during the six hour post-dose study period.
# Mice (n=6) are weighed and fasted for a two hour period prior to oral treatment. GK activators are formulated at 6.76 mg/ml in Gelucire vehicle (Ethanol:Gelucire44/14:PEG400q.s. 4:66:30 v/w/v. Mice are dosed orally with 7.5 μl formulation per gram of body weight to equal to a 50 mg/kg dose. Immediately prior to dosing, a pre dose (time zero) blood glucose reading is acquired by snipping off a small portion of the animals tail (˜1 mm) and collecting 15 μl blood into a heparinized capillary tube for analysis. Following GK activator administration, additional blood glucose reading are takenat 1, 2, 4 and 6 hours post dose from the same tail wound. Results are interpreted by comparing the mean blood glucose values of six vehicle treated mice with six GK activator treated mice over the six hour study duration. Compounds are considered active when they exibit a statistically significant (p ≦0.05) decrease in blood glucose compared to vehicle for two consecutive assay time points.
row,SMILES,glucokinase activator in vivo activity (decrease in blood glucose compared to vehicle)
1,"O=C(Nc1ccncn1)[C@H](CC1CCCCC1)N1Cc2ccccc2C1=O [Example 14, 3-Cyclohexyl-2-(1-oxo-1,3-dihydro-isoindol-2-yl)-N-pyrimidin-4-yl-propionamide]",excellent glucokinase activator in vivo activity
2,"O=C(Nc1cnccn1)[C@H](CC1CCCCC1)N1Cc2ccccc2C1=O [Example 15, (S)-3-Cyclohexyl-2-(1-oxo-1,3-dihydro-isoindol-2-yl)-N-pyrazin-2-yl-propionamide]",excellent glucokinase activator in vivo activity
3,"O=C(Nc1ccccn1)[C@H](CC1CCCCC1)N1Cc2ccccc2C1=O [Example 26, (S)-3-Cyclohexyl-2-(1-oxo-1,3-dihydro-isoindol-2-yl)-N-pyridin-2-yl-propionamide]",excellent glucokinase activator in vivo activity
4,"O=C(Nc1ncc(Cl)s1)C(CC1CCCC1)N1Cc2ccccc2C1=O (centres unmarked) [Example 18, N-(5-Chloro-thiazol-2-yl)-3-cyclopentyl-2-(1-oxo-1,3-dihydro-isoindol-2-yl)-propionamide]",excellent glucokinase activator in vivo activity
5,"Cc1ccc(NC(=O)[C@H](CC2CCCCC2)N2Cc3ccccc3C2=O)nc1 [Example 31, (S)-3-Cyclohexyl-2-(1-oxo-1,3-dihydro-isoindol-2-yl)-N-5-methyl-pyridin-2-yl-propionamide]",excellent glucokinase activator in vivo activity
6,"O=C(Nc1ccc(Cl)cn1)[C@H](CC1CCCCC1)N1Cc2ccccc2C1=O [Example 33, (S)-3-Cyclohexyl-2-(1-oxo-1,3-dihydro-isoindol-2-yl)-N-5-chloro-pyridin-2-yl-propionamide]",excellent glucokinase activator in vivo activity
7,O=C(Nc1cnccn1)[C@H](CC1CCCCC1)N1Cc2c(F)cccc2C1=O [Example 25.1],excellent glucokinase activator in vivo activity
8,"O=C(Nc1nccs1)[C@H](CC1CCCCC1)N1Cc2ccccc2C1=O [Example 1, (S)-3-cyclohexyl-2-(1-oxo-1,3-dihydro-isoindol-2-yl)-N-thiazol-2-yl-propionamide]",excellent glucokinase activator in vivo activity
9,"O=C(Nc1ccc(Br)cn1)[C@H](CC1CCCCC1)N1Cc2ccccc2C1=O [Example 22, (S)-N-(5-Bromo-pyridin-2-yl)-3-cyclohexyl-2-(1-oxo-1,3-dihydro-isoindol-2-yl)-propionamide]",excellent glucokinase activator in vivo activity
10,"O=C(Nc1nccs1)[C@H](CC1CCCCC1)N1Cc2c(F)cccc2C1=O [Example 23.1, (S)-3-Cyclohexyl-2-(4-fluoro-1-oxo-1,3-dihydro-isoindol-2-yl)-N-thiazol-2-yl-propionamide]",excellent glucokinase activator in vivo activity

# Target: T1, Human liver GK1 (GST-GK) (Homo sapiens, UniProt P35557)
# T1 construct: made in house; host or cells: E. coli
# T1 sequence (P35557 1-466 isoform P35557-2): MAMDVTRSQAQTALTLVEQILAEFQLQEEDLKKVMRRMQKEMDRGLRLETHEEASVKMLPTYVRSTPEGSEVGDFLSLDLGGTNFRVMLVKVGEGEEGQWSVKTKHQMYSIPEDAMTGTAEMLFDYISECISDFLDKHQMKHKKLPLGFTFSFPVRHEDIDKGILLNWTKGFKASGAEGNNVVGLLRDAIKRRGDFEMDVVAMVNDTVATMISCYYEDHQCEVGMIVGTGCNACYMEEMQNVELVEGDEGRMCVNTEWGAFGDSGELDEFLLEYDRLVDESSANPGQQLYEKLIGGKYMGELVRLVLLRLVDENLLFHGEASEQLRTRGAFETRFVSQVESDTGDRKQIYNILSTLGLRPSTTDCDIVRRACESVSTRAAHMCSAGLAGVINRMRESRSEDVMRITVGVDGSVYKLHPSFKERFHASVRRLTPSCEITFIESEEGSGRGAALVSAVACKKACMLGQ
# Assay: In vitro glucokinase activity assay (G6PDH-coupled, NADH, OD 340 nm)
# Format: biochemical
# Conditions: 25° C., 5 mM D-glucose, 1 mM ATP, 10% DMSO, recombinant GST-GK
# Method: Glucokinase Assay: Glucokinase (GK) was assayed by coupling the production of glucose-6-phosphate to the generation of NADH with glucose-6-phosphate dehydrogenase (G6PDH, 0.75-1 kunits/mg; Boehringer Mannheim, Indianapolis, Ind.) from Leuconostoc mesenteroides as the coupling enzyme (Scheme 2). Recombinant
# Human liver GK1 was expressed in E. coli as a glutathione S-transferase fusion protein (GST-GK) [Liang et al, 1995] and was purified by chromatography over a glutathione-Sepharose 4B affinity column using the procedure provided by the manufacturer (Amersham Pharmacia Biotech, Piscataway, N.J.).
# The assay was conducted at 25° C. in a flat bottom 96-well tissue culture plate from Costar (Cambridge, Mass.) with a final incubation volume of 120 μl. The incubation mixture contained: 25 mM Hepes buffer (pH, 7.1), 25 mM KCl, 5 mM D-glucose, 1 mM ATP, 1.8 mM NAD, 2 mM MgCl2, 1 μM sorbitol-6-phosphate, 1 mM dithiothreitol, test drug or 10% DMSO, 1.8 unit/ml G6PDH, and GK (see below). […]
# After addition of enzyme, the increase in optical density (OD) at 340 nm was monitored over a 10 minute incubation period as a measure of GK activity. […] The GK activity in control wells was compared with the activity in wells containing test GK activators, and the concentration of activator that produced a 50% increase in the activity of GK, i.e., the SC1.5, was calculated.
row,SC1.5 (concentration of activator that produced a 50% increase in the activity of GK) [µM],SMILES
1,36,"O=C(Nc1nccs1)[C@@H](CC1CCCCC1)N1Cc2ccccc2C1=O [Example 9, (R)-3-cyclohexyl-2-(1-oxo-1,3-dihydro-isoindol-2-yl)-N-thiazol-2-yl-propionamide]"
